Results on five compounds are retold here after patent US7955852B2, “Expansion of renewable stem cell populations” (Gamida Cell Ltd., priority 2002, dated 2011).

Molecules are shown by their SMILES.

For assay [1], the system named is Lin− c-kit+ Sca-1+ murine hematopoietic precursors. To be noted: cited from earlier work.
Assay [2] deals with CD34+ cells. The assay is described as follows: Ex-vivo expansion of CD34+ cell enriched cord blood cultures with cytokines; cell counts and FACS surface antigen analysis. It is filed as cell-based, human. Particulars: for CD34+ (×10^4): 10^−5M; for CD34+ cells per ml: three weeks, SCF, FLt3, IL-6, IL-3, re-selected. The protocol:
Human blood cells were obtained from umbilical cord blood from female patients following full-term, normal delivery (informed consent was obtained).
Samples were collected and processed within 12 hours postpartum. Blood was mixed with 3% Gelatin (Sigma, St. Louis, Mo.), sedimented for 30 minutes to remove most red blood cells. […] The mononuclear cell fraction in the interface layer was collected, washed three times and resuspended in phosphate-buffered saline (PBS) solution (Biological Industries) containing 0.5% bovine serum albumin (BSA, Fraction V; Sigma).
To purify CD34^+ mononuclear cells, the fraction was subjected to two cycles of immuno-magnetic separation using the MiniMACS® or Clinimax® CD34 Progenitor Cell Isolation Kit (Miltenyi Biotec, Auburn, Calif.) as per manufacturer's recommendations.
CD34^+ expressing purified cells above were cultured in 24-well Costar Cell Culture Clusters (Corning Inc., Corning, N.Y.) or culture bags (American Fluoroseal Corp), at a concentration of 10^4 cells/ml in alpha medium (Biological Industries, Beit Haemek, Israel) supplemented with 10% fetal bovine serum (FBS, Biological Industries). The following human recombinant cytokines were added: Thrombopoietin (TPO), interleukin-6 (IL-6), FLT-3 ligand and stem cell factor (SCF), all at final concentrations of 50 ng/ml each, though occasionally IL-3, at a concentration of 20 ng/ml, was added either together or instead of SCF. For non-hematopoietic cell differentiation, FGF, EGF, NGF, VEGF, LIF or Hepatocyte growth factor (HGF) were used to supplement the growth medium, either alone or in various combinations. All cytokines used were purchased from Perpo Tech, Inc. (Rocky Hill, N.J.). The cultures were incubated at 37° C., 5% CO2, in a humidified atmosphere.
At weekly intervals, cell cultures were toped and semi-depopulated and were supplemented with fresh medium, serum and cytokines or supplemented with fresh growth medium, alone. At predetermined time points, cells were harvested, stained with trypan blue, counted, and cell morphology was determined via the use of cytospin (Shandon, UK)-prepared smears stained with May-Grunwald/Giemsa solutions.
CD34^+ purified and whole MNC cultures were prepared and maintained as described above. […] The antagonist was added for a predetermined, limited period, for up to three weeks or continuously during the entire culture period.
Cells were harvested, washed with a PBS solution containing 1% bovine sera albumin (BSA) and 0.1% sodium azide (Sigma), and stained at 4° C. for 60 minutes with fluorescein isothiocyanate or phycoerythrin-conjugated antibodies (all from Immunoquality Products, the Netherlands). The cells were then washed with the same buffer and analyzed by FACS caliber or Facstarplus flow cytometers. Cells were passed at a rate of 1000 cells/second, using saline as the sheath fluid. A 488 nm argon laser beam served as the light source for excitation. Emission of ten thousand cells was measured using logarithmic amplification, and analyzed using CellQuest software. Negative control staining of cells was accomplished with mouse IgG-PE (Dako A/S Glostrup, Denmark) and mouse IgG-FITC (BD Biosciences, Erembodegem, Belgium).
CD34 surface expression on short and long-term cultures initiated either with purified CD34^+ cells or the entire MNC fraction was determined as follows: CD34^+ cells were positively reselected (Miltenyi kit) and counted. Purity was confirmed by subsequent FACS and cell morphology analysis.
Reselected CD34^+ cell subsets were stained for the following combination of antigens: CD34PE/CD38FITC and CD34PE/38, 33, 14, 15, 3, 4, 61, 19 (Lin) FITC. The fraction positive for CD34 and negative for CD38 was defined as CD34^+CD38^−. The fraction positive for CD34 and negative for LIN was defined as CD34^+Lin^− cell fraction.
FACS analysis results are given as percentage values of cells. Absolute numbers of subsets are calculated from the absolute number of CD34^+ cells.

Assay [3] deals with CD34+ cells. Briefly: Colony forming unit (CFU / LTC-CFUc) ability of ex-vivo CD34+ cell cultures. It is filed as cell-based, human. Particulars: 10^−5M. The protocol:
Total cell counts, numbers of CD34^+ cells and subsets, and CFU numbers are presented as cumulative numbers, with the assumption that the cultures had not been passaged; i.e., the number of cells per ml were multiplied by the number of passages performed.
Cells were cloned in semi-solid, methylcellulose-containing medium supplemented with 2 IU/ml erythropoietin (Eprex, Cilag AG Int., Switzerland), stem cell factor and IL-3, both at 20 ng/ml, and G-CSF and GM-CSF, both at 10 ng/ml (all from Perpo Tech). Cultures were incubated for 14 days at 37° C., 5% CO2 in a humidified atmosphere.
Briefly, the ability of the cultures to maintain self-renewal was measured by determination of the content of colony forming unit cells in the long and extended long-term cultures (LTC-CFUc), as described in the references hereinabove.

Another assay relates to HL-60 cells. To be noted: cited from earlier work.
The mark [4] stands for this setting: TPO, FLT3, IL-6, IL-3, 3 weeks after seeding.

On to `Cc1ccc(C2=CCC(C)(C)c3ccc(C#Cc4ccc(C(=O)O)cc4)cc32)cc1` [AGN 193109], for which, in assay [1] (cultured for 7 days), the “increase in the pre-CFU-S population” value is “approximately 6 fold” and the “short- or long-term repopulating ability” value is “virtually no short- or long-term repopulating ability”.

Take `CC1=C(/C=C/C(C)=C/C=C/C(C)=C/C(=O)O)C(C)(C)CCC1` [ATRA, all-trans-retinoic-acid]: in assay [1] (1 μmol), the “generation of colony-forming cell (CFC) and colony-forming unit-spleen (CFU-S)” value is given as “enhanced”.

Consider `CN1c2ccc([N+](=O)[O-])cc2N=C(c2ccc(C(=O)O)cc2)c2cc3c(cc21)C(C)(C)CCC3(C)C` [HX-531, 4-[5H-2,3-(2,5-Dimethyl-2,5-Hexano) 5-Methyl-8-nitrodibenzo [b,e][1,4]diazepin-11-yl) Benzoic acid], for which the “CD34+ (×10^4)” value is 1636 ×10^4 with CD34+ cells [2] (5 weeks after seeding), 4977 ×10^4 in the assay with CD34+ cells [2] (9 weeks after seeding), 4055 ×10^4 in the assay on CD34+ cells [2] (11 weeks after seeding) and 167 ×10^4 in the assay on CD34+ cells [2] (setting [4]). For the same compound, the “CFU (×10^3), mixed” value with CD34+ cells [3] (3 weeks after seeding, mixed colonies) is reported as “(120 mixed) ×10^3”. For the same compound, the “CFU (×10^3)” value with CD34+ cells [3] (5 weeks after seeding) is 8542 ×10^3; in the assay with CD34+ cells [3] (9 weeks after seeding), 36557 ×10^3; with CD34+ cells [3] (11 weeks after seeding), 67338 ×10^3; with CD34+ cells [3] (setting [4]), 1920 ×10^3.

For `CCCOc1cc2c(cc1\C(C)=C/C=C/C(C)=C/C(=O)O)C(C)(C)CCC2(C)C` [LGN 100754], the “activity on ex vivo expansion of stem/progenitor cells” value with CD34+ cells [2] (10^−7 M, along with IL-3, 3 and 5 weeks) is given as “no activity”.

Take `NC(=O)c1cccnc1` [Nicotinamide]: the “CD34+ cells per ml” value is reported as 99 ×10^4 CD34+ cells per ml in the assay on CD34+ cells [2] (1 mM, TPO) and 180 ×10^4 CD34+ cells per ml with CD34+ cells [2] (5 mM, TPO). Besides, in the assay with HL-60 cells, the “CD38 activity and differentiation” value is “inhibited”.
